Reference: the Kinase Knowledgebase extract (Sharma et al. 2016)
≈ marks a conversion by molar mass, not a printed value.

Molecular target: EGFR (UniProt P00533)
Sequence (P00533 whole entry, looked up): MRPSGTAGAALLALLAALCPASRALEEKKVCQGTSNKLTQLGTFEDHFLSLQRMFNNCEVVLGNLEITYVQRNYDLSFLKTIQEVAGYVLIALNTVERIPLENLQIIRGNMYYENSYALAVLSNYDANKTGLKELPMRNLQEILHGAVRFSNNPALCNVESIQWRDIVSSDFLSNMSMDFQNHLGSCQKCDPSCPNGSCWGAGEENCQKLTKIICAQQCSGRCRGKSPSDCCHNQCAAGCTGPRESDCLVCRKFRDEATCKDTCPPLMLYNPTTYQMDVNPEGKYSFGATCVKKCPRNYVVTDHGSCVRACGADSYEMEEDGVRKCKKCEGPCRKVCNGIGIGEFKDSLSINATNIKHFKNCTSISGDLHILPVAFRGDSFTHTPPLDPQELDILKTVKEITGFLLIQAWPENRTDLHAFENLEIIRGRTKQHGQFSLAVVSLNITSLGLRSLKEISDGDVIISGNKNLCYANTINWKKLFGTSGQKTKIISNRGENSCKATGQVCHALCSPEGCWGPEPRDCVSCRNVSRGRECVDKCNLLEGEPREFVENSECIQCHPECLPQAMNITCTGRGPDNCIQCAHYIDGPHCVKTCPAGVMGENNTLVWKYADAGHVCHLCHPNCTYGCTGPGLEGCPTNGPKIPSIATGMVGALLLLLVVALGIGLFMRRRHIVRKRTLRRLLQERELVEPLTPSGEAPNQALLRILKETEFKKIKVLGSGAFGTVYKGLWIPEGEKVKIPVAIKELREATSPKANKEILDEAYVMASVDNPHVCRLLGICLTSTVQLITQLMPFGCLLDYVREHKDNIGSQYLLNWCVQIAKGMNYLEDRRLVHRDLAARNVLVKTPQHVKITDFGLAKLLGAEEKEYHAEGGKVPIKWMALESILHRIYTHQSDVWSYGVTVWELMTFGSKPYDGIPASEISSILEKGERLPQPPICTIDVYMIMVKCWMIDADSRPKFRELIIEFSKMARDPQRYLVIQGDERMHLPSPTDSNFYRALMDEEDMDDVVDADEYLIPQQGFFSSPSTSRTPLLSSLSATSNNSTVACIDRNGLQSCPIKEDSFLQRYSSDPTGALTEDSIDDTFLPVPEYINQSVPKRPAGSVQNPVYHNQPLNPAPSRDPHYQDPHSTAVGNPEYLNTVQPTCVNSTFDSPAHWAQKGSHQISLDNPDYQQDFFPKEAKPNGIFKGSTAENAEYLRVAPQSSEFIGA

`COc1cc(Nc2ncnc(-n3c(NCCCCO)nc4ccccc43)n2)cc(OC)c1OC` and `COc1cc(Nc2ncnc(-n3c(N)nc4ccccc43)n2)cc(OC)c1OC` cannot be ordered by IC50: > 4.5 µg/mL for the first, > 4.5 µg/mL for the second.

Compared with `COc1ccc(Nc2ncnc(Nc3ccc(C)c(O)c3)n2)cc1OC`, `COc1ccc(Nc2ncnc(-c3cccs3)n2)cc1OC` is higher in IC50: < 0.4 µg/mL for the first, > 4.5 µg/mL for the second.

Compared with `COc1ccc(N(C)c2ncnc(-n3c(N)nc4ccccc43)n2)cc1`, `CN(C)c1ccc(Nc2ncnc(-n3c(N)nc4ccccc43)n2)cc1` is lower in IC50: > 4.5 µg/mL for the first, 2.4 to 3.5 µg/mL (≈ 6.93 to 10.1 µM) for the second.

Compared with `Clc1cccc(Nc2ncnc(Nc3cc(-c4ccccc4)n[nH]3)n2)c1`, `COc1cccc(Nc2ncnc(Nc3cc(-c4ccccc4)n[nH]3)n2)c1` is higher in IC50: < 0.4 µg/mL for the first, 0.4 to 2.4 µg/mL (≈ 1.11 to 6.68 µM) for the second.

`COc1cc(Nc2ncnc(Nc3n[nH]c(Nc4ccc(Cl)cc4)n3)n2)cc(OC)c1OC` and `COc1cc(Nc2ncnc(Nc3cccc4ncccc34)n2)cc(OC)c1OC` fall in the same range of IC50: 2.4 to 3.5 µg/mL (≈ 5.11 to 7.45 µM) for the first, 2.4 to 3.5 µg/mL (≈ 5.93 to 8.65 µM) for the second.

`COC(=O)c1cc(Nc2ncnc(Nc3cc(-c4ccco4)n[nH]3)n2)cc(C(=O)OC)c1` and `COC(=O)c1ccc(-c2cc(Nc3ncnc(NCCNC(C)=O)n3)[nH]n2)cc1` cannot be ordered by IC50: > 4.5 µg/mL for the first, > 4.5 µg/mL for the second.

`COc1ccc(CNc2nc3ccccc3n2-c2ncnc(Nc3cc(OC)c(OC)c(OC)c3)n2)cc1` and `COc1cc(Nc2ncnc(-n3c(NCc4ccncc4)nc4ccccc43)n2)cc(OC)c1OC` cannot be ordered by IC50: > 4.5 µg/mL for the first, > 4.5 µg/mL for the second.

`Cc1cccc(Nc2ncnc(N(C)c3cccc(Br)c3)n2)c1` and `CN(c1cccc(Cl)c1)c1ncnc(Nc2cccc(OC(F)(F)F)c2)n1` cannot be ordered by IC50: < 0.4 µg/mL for the first, < 0.4 µg/mL for the second.

First: COc1ccc(Nc2ncnc(-n3c(N)nc4ccccc43)n2)cc1OC
Second: CCOc1ccc(Nc2ncnc(-n3c(N)nc4ccccc43)n2)cc1OCC
The IC50 of the first is higher: > 4.5 µg/mL for the first, 2.4 to 3.5 µg/mL (≈ 6.13 to 8.94 µM) for the second.

`CN(c1cccc(Cl)c1)c1ncnc(Nc2ccc(CC(=O)O)cc2)n1` and `COc1ccc(Nc2ncnc(N(C)c3cccc(Cl)c3)n2)cc1` cannot be ordered by IC50: < 0.4 µg/mL for the first, < 0.4 µg/mL for the second.

`Fc1ccc(Nc2ncnc(Nc3ccc4[nH]ccc4c3)n2)cc1Cl` and `Fc1ccc(Nc2ncnc(Nc3ccc4cn[nH]c4c3)n2)cc1Cl` cannot be ordered by IC50: < 0.4 µg/mL for the first, < 0.4 µg/mL for the second.

`CC(C)Nc1ncccc1-c1ncnc(Nc2cccc(CC(=O)O)c2)n1` and `COc1cc(Nc2ncnc(-c3cccnc3NC(C)C)n2)ccc1NC(=O)CCCN1CCNCC1` cannot be ordered by IC50: > 4.5 µg/mL for the first, > 4.5 µg/mL for the second.

Going from `COc1ccc(Nc2ncnc(N(C)C3CCCCC3)n2)cc1OC` to `CCN1CCCC1CNc1ncnc(Nc2ccc(OC)c(OC)c2)n1` (stereo not drawn), the IC50 rises from < 0.4 µg/mL to > 4.5 µg/mL.

First: CN(c1cccc(Cl)c1)c1ncnc(NCCN2CCCCC2)n1
Second: CCOc1ccc(Nc2ncnc(N(C)c3cccc(Cl)c3)n2)cc1OCC
The IC50 of the first is higher: 2.4 to 3.5 µg/mL (≈ 6.92 to 10.1 µM) for the first, < 0.4 µg/mL for the second.

`COc1cc(Nc2ncnc(N3CCc4cc([N+](=O)[O-])ccc43)n2)cc(OC)c1OC` and `COc1cc(Nc2ncnc(-n3nc(-c4ccccc4)cc3N)n2)cc(OC)c1OC` cannot be ordered by IC50: > 4.5 µg/mL for the first, > 4.5 µg/mL for the second.

`COc1cc(Nc2ncnc(-n3c(NCc4ccc(Cl)cc4C)nc4ccccc43)n2)cc(OC)c1OC` and `COc1cc(Nc2ncnc(-n3c(NCc4ccc(F)cc4Cl)nc4ccccc43)n2)cc(OC)c1OC` fall in the same range of IC50: 3.5 to 4.5 µg/mL (≈ 6.58 to 8.46 µM) for the first, 3.5 to 4.5 µg/mL (≈ 6.53 to 8.4 µM) for the second.

First: COc1cc(Nc2ncnc(Nc3cc(-c4ccccc4)nn3C)n2)cc(OC)c1OC
Second: COc1cc(Nc2ncnc(-c3cccnc3)n2)cc(OC)c1OC
The IC50 of the first is lower: 3.5 to 4.5 µg/mL (≈ 8.07 to 10.4 µM) for the first, > 4.5 µg/mL for the second.

Compared with `Cc1ccc2c(c1)CCCN2c1ncnc(Nc2ccc3c(c2)C(=O)OC3)n1`, `COc1ccc(Nc2ncnc(-n3c(=O)[nH]c4ccccc43)n2)cc1OC` is higher in IC50: < 0.4 µg/mL for the first, 2.4 to 3.5 µg/mL (≈ 6.59 to 9.61 µM) for the second.

`COc1cc(Nc2ncnc(-n3c(NCc4ccccn4)nc4ccccc43)n2)cc(OC)c1OC` and `COc1cc(Nc2ncnc(-n3c(NCCc4ccncc4)nc4ccccc43)n2)cc(OC)c1OC` cannot be ordered by IC50: > 4.5 µg/mL for the first, > 4.5 µg/mL for the second.

First: COC(=O)Cc1cccc(Nc2ncnc(-n3c(N)nc4ccccc43)n2)c1
Second: Nc1nc2ccccc2n1-c1ncnc(Nc2cccc(CC(=O)NCc3ccccn3)c2)n1
The IC50 of the first is lower: 2.4 to 3.5 µg/mL (≈ 6.39 to 9.32 µM) for the first, > 4.5 µg/mL for the second.

First: COc1cc(Nc2ncnc(N(C)c3cccc(Cl)c3)n2)cc(OC)c1
Second: COc1cc(Nc2ncnc(Nc3cc(OC)c(OC)c(OC)c3)n2)cc(OC)c1
The IC50 of the first is lower: < 0.4 µg/mL for the first, > 4.5 µg/mL for the second.

Going from `COc1cc(Nc2ncnc(-n3c(Nc4ccc(N(C)C)cc4)nc4ccccc43)n2)cc(OC)c1OC` to `COc1cc(Nc2ncnc(N(C)c3ccc4c(cnn4Cc4ccccc4)c3)n2)cc(OC)c1OC`, the IC50 falls from > 4.5 µg/mL to < 0.4 µg/mL.

`FC(F)C(F)(F)Oc1cccc(Nc2ncnc(-c3ccnc(N4CCCCC4)c3)n2)c1` and `COC(=O)c1ccc(Nc2ncnc(-c3ccccc3)n2)cc1` cannot be ordered by IC50: > 4.5 µg/mL for the first, > 4.5 µg/mL for the second.

`c1ccc(-c2cc(Nc3ncnc(Nc4cccc(-c5cnco5)c4)n3)[nH]n2)cc1` and `C#Cc1cccc(Nc2ncnc(Nc3cc(-c4ccccc4)n[nH]3)n2)c1` fall in the same range of IC50: 0.4 to 2.4 µg/mL (≈ 1.01 to 6.05 µM) for the first, 0.4 to 2.4 µg/mL (≈ 1.13 to 6.79 µM) for the second.

Going from `O=C(O)Cc1cccc(Nc2ncnc(-n3c(NCc4ccccc4)nc4ccccc43)n2)c1` to `O=c1[nH]c2ccccc2n1-c1ncnc(Nc2cnc3ccccc3c2)n1`, the IC50 rises from < 0.4 µg/mL to > 4.5 µg/mL.

Compared with `Clc1cc(Nc2ncnc(Nc3ccc4c(cnn4Cc4ccccc4)c3)n2)cc(Cl)c1Cl`, `CC(=O)c1ccc(Nc2ncnc(Nc3ccc4c(cnn4Cc4ccccc4)c3)n2)cc1` is lower in IC50: 0.4 to 2.4 µg/mL (≈ 0.805 to 4.83 µM) for the first, < 0.4 µg/mL for the second.

`COc1cc(Nc2ncnc(N3CCC(O)CC3)n2)cc(OC)c1OC` was tested, and the IC50 was > 4.5 µg/mL.
